Test results taken from patent US20240390403A1, “COMPOSITION AND METHODS FOR TREATING AN ANEURYSM” (Nectero Medical, Inc., priority 2023, published 2024).

Tested on: porcine abdominal aortas
Assay: opening angle experiment on porcine abdominal aortic rings
Conditions: for statistical analysis of opening angles (ANOVA): Example 13, 50-fold dilution (0.05 mM; Glutaraldehyde 0.5% in PBS, pH 7.4), n=9 rings
Description: In this study, compounds of this disclosure were added to abdominal aortas in an opening angle experiment to determine how they would affect the aorta in vitro. Thus, to understand the ability of the compounds of this disclosure to bind to aortic elastin and determine their ability to affect the aorta and aneurysms.
Twelve porcine abdominal aortas were ordered and received. The infra-renal sections of these aortas were dissected, cleaned, rinsed, and then cut into rings measuring 3 mm in width. […] These rings were mixed up before testing to randomize them based on their location in the artery. They were then stored in 500 ml of saline. Analog solutions were prepared at the same molar concentration, but they were not normalized for gallic acid content as indicated in Table 1. These solutions of analogs were made using a solution containing about 26% iopamidol, a radioopaque contrast agent. […] All solutions were prepared one day prior to their use. […] For each solution, 6 aortic rings were placed in a pre-labeled 50 ml conical tube containing 20 ml of the solution, resulting in a volume to tissue ratio of approximately 3.3 ml of solution per ring. The tubes were then incubated at room temperature for 3 hours, with rotation every 30-40 minutes.
After the treatment, while still in the tube, the solution was decanted, and the rings were rinsed three times in PBS and then suspended in PBS. The rings were placed in a 6-well plate, with 2 rings per well and 3 ml of PBS in each well. Each ring was opened with a single cut using fine scissors and laid back in the well. The rings were allowed 15 minutes to recoil in the PBS at room temperature, with gentle shaking every 5 minutes.
Photographs of the rings were taken, and their opening angles were measured using Image J software. The data were then plotted and statistical analyses were performed for comparison.
All solutions were prepared one day prior to their use.
For this experiment, nine aortic rings were placed in 30 ml of a pre-prepared solution within a 50 ml conical tube. […] The tubes were then incubated at room temperature for 3 hours, with rotations occurring every 30-40 minutes. After the incubation period, while still in the tubes, the solution was poured off, and the rings were rinsed three times with PBS and then left suspended in PBS. The rings were then transferred to a 6-well plate, with 2 rings per well and 3-4 ml of PBS in each well. Each ring was opened with a single cut using fine scissors and laid flat in the well. They were allowed to recoil for 15 minutes in PBS at room temperature, with gentle shaking every 5 minutes. Photographs were taken, and the opening angle was measured using the Image J software.

| Compound | statistical analysis of opening angles (ANOVA) | statistical comparison of mean opening angles among analogs (FIG. 3) (Example 12, 2.49 mM, n=6 rings) | variability of opening angles relative to control samples (Example 12, 2.49 mM, n=6 rings) | further results |
| --- | --- | --- | --- | --- |
| O=CCCCC=O [Glutaraldehyde, reference compound] | significantly different from all controls and analogs |  |  |  |
| O=C(OC[C@H]1O[C@@H](OC(=O)c2cc(O)c(O)c(O)c2)[C@H](OC(=O)c2cc(O)c(O)c(O)c2)[C@@H]1OC(=O)c1cc(O)c(O)c(O)c1)c1cc(O)c(O)c(O)c1 [TG-ribose, polygalloyl ribose] |  | statistically significant lower opening angles |  |  |
| O=C(OC[C@@H]1O[C@@H](OC(=O)c2cc(O)c(O)c(O)c2)[C@H](OC(=O)c2cc(O)c(O)c(O)c2)[C@@H](OC(=O)c2cc(O)c(O)c(O)c2)[C@H]1OC(=O)c1cc(O)c(O)c(O)c1)c1cc(O)c(O)c(O)c1 [α-PGG, pentagalloyl α-glucose] |  | not statistically different |  |  |
| O=C(OC[C@H]1O[C@@H](OC(=O)c2cc(O)c(O)c(O)c2)[C@H](OC(=O)c2cc(O)c(O)c(O)c2)[C@@H](OC(=O)c2cc(O)c(O)c(O)c2)[C@@H]1OC(=O)c1cc(O)c(O)c(O)c1)c1cc(O)c(O)c(O)c1 [β-PGG, pentagalloyl β-glucose, reference compound] | significantly different from all controls and analogs | not statistically different |  |  |
| polygalloyl maltose [OG-maltose] |  |  | substantially reduced | opening angle compared to the PBS subgroup (statistics) (Example 12, 2.49 mM, n=6 rings): statistically significant differences, except for OG-maltose |
| polygalloyl-sucrose [OG-sucrose] |  |  | substantially reduced |  |
